Assay results: patent US10231996B2, “Biocampatible polymer coated silver Prussian blue nanoparticles (SPB-NPs: Ag3[Fe(CN) 6])” (COUNCIL OF SCIENTIFIC & INDUSTRIAL RESEARCH, priority 2015, dated 2019)

What was measured:
[1] = system: B16F10 aggressive murine melanoma tumor; experiment: In vivo B16F10 melanoma tumor model in C57BL6/J mice; conditions: free Dox 2.5 mg/kg, after four IP injections, compared to SPB(1,1)NPs treated mice
Description: In vivo tumor model was carried out using male C57BL6/J mice (8-9 weeks old). Approximately, 2.5×10^5 B16F10 cells resuspended in 100 μL of sterile HBSS were subcutaneously injected to lower right abdomen of male mice. […] All the treatments were Intraperitoneally (IP) injected on alternate days over a period of 15 days. The volume of tumor was measured by using the formula (0.5×ab^2), where ‘a’ represents the longest dimension and ‘b’ represents the shortest dimension of the tumors. Also, the weight and picture of the tumors were taken after the sacrifice. […] The loss of body weight can correlate with the nonspecific side effects of Dox in normal physiological function.

E. coli [2] = experiment: Colony forming units (CFU), E. coli; format: cell-based; conditions: positive control 2 mg/ml, 24 hours
Description: (§1) Streptomycin at 2 mg/ml concentration was used as positive control. The plated were incubated for 24 hours at 37° C. The number of colonies appeared on the surface of the LB agar plates were counted. […] We previously reported the antibacterial activity of biosynthesized silver nanoparticles (Mukherjee et al. Theranostics, 2014; 4: 316-335).

Bacillus subtilis = experiment: Colony forming units (CFU), Bacillus subtilis; format: cell-based; conditions: positive control 2 mg/ml, 24 hours
Description: as §1

E. coli [3] = experiment: Measurement of lipid peroxidation; format: cell-based; conditions: positive control; (sample O.D/Control O.D)×100
Description: Lipid peroxidation was measured according to standard protocol. […] 1.5 ml of 20% acetic acid (pH 3.5), 1.5 ml of 0.8% thiobarbituric acid (in 1.1% SDS) and 0.05 ml of 20% TCA were added and mixed thoroughly. The tubes were then incubated for 60 minutes at 100° C. and 5 ml of butanol was added to each tube. The tubes were then centrifuged at 4000 rpm for 15 minutes. The pink supernatant was measures at 532 nm. The % of lipid peroxidation was measured by using the following formula: % of lipid peroxidation=(sample O.D/Control O.D)×100.

Row | Compound | body weight [1] | bacterial growth (colonies) (E. coli [2]) | bacterial growth (colonies) (Bacillus subtilis) | lipid peroxidation (E. coli [3]) [%]
1 | COc1cccc2c1C(=O)c1c(O)c3c(c(O)c1C2=O)C[C@@](O)(C(=O)CO)C[C@@H]3O[C@H]1C[C@H](N)[C@H](O)[C@H](C)O1 [Dox, doxorubicin] | significant loss of bodyweight |  |  | 
2 | [H]/N=C(/N)N[C@H]1[C@H](O)[C@@H](O)[C@H](O[C@@H]2O[C@@H](C)[C@](O)(C=O)[C@H]2O[C@@H]2O[C@@H](CO)[C@H](O)[C@@H](O)[C@@H]2NC)[C@@H](N/C(N)=N\[H])[C@@H]1O [streptomycin] |  | bacterial colonies were observed | bacterial colonies were observed | 60
